# “And” between values parts separate entries of the source, which are not always exact repeats. Equal entries are not always repeated. Toxic doses and inconclusive results are not listed.
# Test system: P388 leukemia ip, CD2F1 mice, survival T/C
# Assay: NCI In Vivo Anticancer Drug Screen. Data for tumor model P388 Leukemia (intraperitoneal) in CD2F1 (CDF1) mice
# Conditions: endpoint: median survival time, higher = longer survival
# How it was run: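 Mice carrying the transplanted tumor received test compound or vehicle. Survival was recorded in each group, and the value is the treated-group measurement divided by that of the vehicle-treated control group.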
# [1] = dose: 60.0 mg/kg/injection, schedule: Q01DX005 (ip), vehicle: saline with Tween-80
# [2] = dose: 120.0 mg/kg/injection, schedule: Q01DX005 (ip), vehicle: saline with Tween-80
# [3] = dose: 240.0 mg/kg/injection, schedule: Q01DX005 (ip), vehicle: saline with Tween-80
# [4] = dose: 50.0 mg/kg/injection, schedule: Q01DX005 (ip), vehicle: Klucel (hydroxypropylcellulose) (HPC)
# [5] = dose: 100.0 mg/kg/injection, schedule: Q01DX005 (ip), vehicle: Klucel (hydroxypropylcellulose) (HPC)
# [6] = dose: 200.0 mg/kg/injection, schedule: Q01DX005 (ip), vehicle: Klucel (hydroxypropylcellulose) (HPC)
# [7] = dose: 50.0 mg/kg/injection, schedule: Q01DX005 (ip), vehicle: saline with Tween-80
# [8] = dose: 200.0 mg/kg/injection, schedule: Q01DX009 (ip), vehicle: saline with Tween-80
smiles,measurement,setting,value
CCOc1nc(C)c(C)c(-c2ccc(OC)c(OC)c2OCc2ccccc2)c1C#N,T/C,"dose: 0.05 mg/kg/injection, schedule: Q01DX009 (ip), vehicle: other",117 % of control
same,T/C,"dose: 0.1 mg/kg/injection, schedule: Q01DX009 (ip), vehicle: other",96 % of control
same,T/C,"dose: 0.2 mg/kg/injection, schedule: Q01DX009 (ip), vehicle: other",101 % of control
same,T/C,"dose: 0.4 mg/kg/injection, schedule: Q01DX009 (ip), vehicle: other",100 % of control and 107 % of control
same,T/C,"dose: 0.8 mg/kg/injection, schedule: Q01DX009 (ip), vehicle: other",110 % of control
same,T/C,"dose: 1.6 mg/kg/injection, schedule: Q01DX009 (ip), vehicle: other",117 % of control
same,T/C,"dose: 3.2 mg/kg/injection, schedule: Q01DX009 (ip), vehicle: other",115 % of control
same,T/C,"dose: 6.4 mg/kg/injection, schedule: Q01DX009 (ip), vehicle: DMSO",103 % of control
same,T/C,"dose: 6.4 mg/kg/injection, schedule: Q01DX009 (ip), vehicle: other",110 % of control
same,T/C,"dose: 12.8 mg/kg/injection, schedule: Q01DX009 (ip), vehicle: DMSO",94 % of control
same,T/C,"dose: 25.6 mg/kg/injection, schedule: Q01DX009 (ip), vehicle: DMSO",94 % of control
same,T/C,"dose: 51.2 mg/kg/injection, schedule: Q01DX009 (ip), vehicle: DMSO",97 % of control
same,T/C,"dose: 100.0 mg/kg/injection, schedule: Q01DX009 (ip), vehicle: other",104 % of control
same,T/C,"dose: 102.0 mg/kg/injection, schedule: Q01DX009 (ip), vehicle: DMSO",94 % of control
same,T/C,"dose: 200.0 mg/kg/injection, schedule: Q01DX009 (ip), vehicle: other",115 % of control
same,T/C,"dose: 400.0 mg/kg/injection, schedule: Q01DX009 (ip), vehicle: other",100 % of control
Cc1cc(C)c(C(Cl)(Cl)Cl)c(C)c1Cl,T/C,"dose: 6.25 mg/kg/injection, schedule: Q04DX003 (ip), vehicle: saline with Tween-80",104 % of control
same,T/C,"dose: 8.0 mg/kg/injection, schedule: Q04DX003 (ip), vehicle: saline with Tween-80",90 % of control
same,T/C,"dose: 12.0 mg/kg/injection, schedule: Q04DX003 (ip), vehicle: saline with Tween-80",100 % of control
same,T/C,"dose: 12.5 mg/kg/injection, schedule: Q01DX009 (ip), vehicle: saline sonified",118 % of control
same,T/C,"dose: 12.5 mg/kg/injection, schedule: Q04DX003 (ip), vehicle: saline with Tween-80",118 % of control
same,T/C,"dose: 18.0 mg/kg/injection, schedule: Q04DX003 (ip), vehicle: saline with Tween-80",113 % of control
same,T/C,"dose: 33.0 mg/kg/injection, schedule: Q01DX009 (ip), vehicle: saline sonified",165 % of control
same,T/C,"dose: 50.0 mg/kg/injection, schedule: Q01DX009 (ip), vehicle: saline sonified",150 % of control
same,T/C,"dose: 75.0 mg/kg/injection, schedule: Q01DX009 (ip), vehicle: saline sonified",105 % of control
CC(=O)Oc1ccc(C2COc3cc(OC(C)=O)c(OC(C)=O)cc3C2)cc1 (centres undefined),T/C,[1],104 % of control
same,T/C,[2],104 % of control
same,T/C,[3],104 % of control
CCOC1(NC(=O)N(C)C)CC1,T/C,"dose: 50.0 mg/kg/injection, schedule: Q04DX003 (ip), vehicle: saline",103 % of control
same,T/C,"dose: 100.0 mg/kg/injection, schedule: Q04DX003 (ip), vehicle: saline",102 % of control
same,T/C,"dose: 200.0 mg/kg/injection, schedule: Q04DX003 (ip), vehicle: saline",102 % of control
CC(=NCCCCN=C(C)c1cc(O)cc(Br)c1O)c1cc(O)cc(Br)c1O.[Co],T/C,[1],90 % of control
same,T/C,[2],98 % of control
same,T/C,[3],94 % of control
Clc1ccc2c(ccc3ccc(Cl)nc32)n1,T/C,"dose: 25.0 mg/kg/injection, schedule: Q04DX002 (ip), vehicle: saline with Tween-80",100 % of control
same,T/C,"dose: 50.0 mg/kg/injection, schedule: Q04DX002 (ip), vehicle: saline with Tween-80",98 % of control
same,T/C,"dose: 100.0 mg/kg/injection, schedule: Q04DX002 (ip), vehicle: saline with Tween-80",89 % of control
CC(=O)c1ccc(Cl)c(N=Cc2cc(Br)ccc2O)c1,T/C,[4],88 % of control
same,T/C,[5],95 % of control
same,T/C,[6],92 % of control
ClCCN(CCN(CCCl)c1ccc2ccccc2c1)c1ccc2ccccc2c1,T/C,"dose: 50.0 mg/kg/injection, schedule: Q01DX009 (ip), vehicle: Klucel (hydroxypropylcellulose) (HPC)",109 % of control
same,T/C,"dose: 100.0 mg/kg/injection, schedule: Q01DX009 (ip), vehicle: Klucel (hydroxypropylcellulose) (HPC)",112 % of control
same,T/C,"dose: 200.0 mg/kg/injection, schedule: Q01DX009 (ip), vehicle: Klucel (hydroxypropylcellulose) (HPC)",107 % of control
O=c1cc(CCl)occ1O,T/C,"dose: 50.0 mg/kg/injection, schedule: Q01DX009 (ip), vehicle: saline",100 % of control and 113 % of control
same,T/C,"dose: 100.0 mg/kg/injection, schedule: Q01DX009 (ip), vehicle: saline",101 % of control and 103 % of control
same,T/C,"dose: 200.0 mg/kg/injection, schedule: Q01DX009 (ip), vehicle: saline",100 % of control and 113 % of control
same,T/C,"dose: 400.0 mg/kg/injection, schedule: Q01DX009 (ip), vehicle: saline",110 % of control and 95 % of control
COc1cc2c(cc1OC)[C@H](c1cc(Br)c(O)c(OC)c1)[C@H]1C(=O)OCC1C2 (some centres undefined),T/C,"dose: 12.5 mg/kg/injection, schedule: Q01DX005 (ip), vehicle: saline with Tween-80",87 % of control
same,T/C,"dose: 25.0 mg/kg/injection, schedule: Q01DX005 (ip), vehicle: saline with Tween-80",92 % of control
same,T/C,[7],92 % of control
same,T/C,"dose: 100.0 mg/kg/injection, schedule: Q01DX005 (ip), vehicle: saline with Tween-80",88 % of control
same,T/C,"dose: 200.0 mg/kg/injection, schedule: Q01DX005 (ip), vehicle: saline with Tween-80",89 % of control
Cc1cc(C)c(OC(=O)NCCCl)c(C)c1,T/C,[4],97 % of control
same,T/C,[5],97 % of control
same,T/C,[6],96 % of control
CCCCN=NN/C=C/C(C)(C)C,T/C,[7],115 % of control
O=C(Nc1ccccc1Cl)Oc1ccc(-c2ccccc2)cc1Br,T/C,"dose: 25.0 mg/kg/injection, schedule: Q01DX009 (ip), vehicle: saline with Tween-80",111 % of control
same,T/C,"dose: 50.0 mg/kg/injection, schedule: Q01DX009 (ip), vehicle: saline with Tween-80",121 % of control
same,T/C,[8],104 % of control and 95 % of control
CCc1nc(N)nc(N)c1-c1ccc(N(C)Cc2ccccc2)c([N+](=O)[O-])c1,T/C,"dose: 60.0 mg/kg/injection, schedule: Q01DX005 (ip), vehicle: Klucel (hydroxypropylcellulose) (HPC)",116 % of control
same,T/C,"dose: 120.0 mg/kg/injection, schedule: Q01DX005 (ip), vehicle: Klucel (hydroxypropylcellulose) (HPC)",120 % of control
same,T/C,"dose: 240.0 mg/kg/injection, schedule: Q01DX005 (ip), vehicle: Klucel (hydroxypropylcellulose) (HPC)",185 % of control
same,T/C,"dose: 480.0 mg/kg/injection, schedule: Q01DX005 (ip), vehicle: Klucel (hydroxypropylcellulose) (HPC)",205 % of control
CC(=O)CCC(=O)OC(C)(C)CN,T/C,"dose: 100.0 mg/kg/injection, schedule: Q01DX009 (ip), vehicle: saline with Tween-80",100 % of control
same,T/C,"dose: 100.0 mg/kg/injection, schedule: Q04DX003 (ip), vehicle: saline with Tween-80",100 % of control
same,T/C,[8],100 % of control
same,T/C,"dose: 200.0 mg/kg/injection, schedule: Q04DX003 (ip), vehicle: saline with Tween-80",100 % of control
same,T/C,"dose: 400.0 mg/kg/injection, schedule: Q01DX009 (ip), vehicle: saline with Tween-80",104 % of control
same,T/C,"dose: 400.0 mg/kg/injection, schedule: Q04DX003 (ip), vehicle: saline with Tween-80",104 % of control

# Source: PubChem BioAssay AID330 (DTP/NCI, 2004)
